Laboratory results from US4578245A, “Multilayer analytical element” (Fuji Photo Film Co., Ltd., priority 1982, dated 1986).

Assay: Relative Sensitivity in Aqueous Solution System (color formation with H2O2, peroxidase and 1,7-dihydroxynaphthalene)
Details: relative steepness of calibration curve; reference (C1) = 1.0; pH 6.0; 37° C., 10 min; 515 nm
Description: The following color-forming composition solutions were prepared using, as coupler, 1,7-dihydroxynaphthalene and, as chromogen, the compounds (1), (6), (7), (18), (C1) and (C2), respectively.
1,7-Dihydroxynaphthalene: 50 μmol
Phosphate buffer: added to adjust to pH 6.0
The color-forming solution having the above composition (5 ml.) was incubated at 37° C. for 3 min., and subsequently 50 μl. of aqueous H2 O2 solution (four levels from 1 mmol to 6 mmol and blank, respectively) was dropped into the incubated color-forming solution. The solution was further incubated at 37° C. for 10 min., and immediately subjected to transmissive spectroscopy at the wavelength of 515 nm for measurement of optical density of the formed color. The relationships between the H2 O2 concentrations and the measured optical density values on the formed color (the value was calculated by subtracting an optical density of the color formed in the blank solution from an optical density of the color formed in the aqueous H2 O2 incorporated solution) were plotted on an orthgonal axes graph to determine the steepness of slope of the calibration curve. The relative sensitivity of each compound is set forth in Table 6 in terms of a relative steepness value based on the reference steepness obtained in the measurement on the solution using the compound (C1). In Table 6, the reference steepness is given as 1.0.

Structure (SMILES)	Relative Sensitivity (aq. sol.)
Cc1c(N)c(=O)n(-c2cccc(Cl)c2)n1C [(1)]	0.99
Cn1c(-c2ccccc2)c(N)c(=O)n1-c1ccccc1 [(18)]	0.82
Cn1c(-c2ccccc2)c(N)c(=O)n1C [(C2), reference compound]	0.77
Cc1c(N)c(=O)n(-c2c(Cl)cc(Cl)cc2Cl)n1C [Compound (6)]	0.70
Cc1c(N)c(=O)n(-c2ccccc2)n1C [Compound (C1), 4-amino-2,3-dimethyl-1-phenyl-3-pyrazolin-5-one, reference compound]	1.0
